Assay results published in the NIST ThermoML archive (doi:10.1016/j.jct.2016.05.021).

How the values were obtained:
[1] = xn = mol fraction of the nth substance listed; conditions: 100 kPa, Liquid, x1 = 1; for speed of sound: Frequency=3 MHz, Sing-around technique in a fixed-path interferometer; for mass density: Vibrating tube method
[2] = refractive index (Na D-line) (dimensionless); xn = mol fraction of the nth substance listed; conditions: 100 kPa, Liquid, Standard Abbe refractometry, x1 = 1
[3] = 100 kPa; for speed of sound: Frequency=3 MHz, Sing-around technique in a fixed-path interferometer; for mass density: Vibrating tube method
[4] = refractive index (Na D-line) (dimensionless); conditions: 100 kPa, Standard Abbe refractometry

CCCC[n+]1ccn(C)c1.O=S(=O)([N-]S(=O)(=O)C(F)(F)F)C(F)(F)F + O=C1CCCN1
Conditions	mass density, [1] [kg/m3]	refractive index, [2]	speed of sound, [1] [m/s]
298.15 K	1433.72	1.42671	1227.9
303.15 K	1428.95	1.42523	1216.8
308.15 K	1424.18	1.42374	1205.8
313.15 K	1419.41	1.42225	1195
318.15 K	1414.64	1.42076	1184.2
323.15 K	1409.87	1.41923	1173.6

O=C1CCCN1 [2-pyrrolidinone]
Metastable liquid
Conditions	mass density, [3] [kg/m3]	refractive index, [4]	speed of sound, [3] [m/s]
298.15 K	1107.16	1.48591	1634.3
303.15 K	1103.07	1.48403	1617.7
308.15 K	1098.99	1.48218	1602.3
313.15 K	1094.9	1.48033	1585.4
318.15 K	1090.82	1.47841	1569.4
323.15 K	1086.75	1.47649	1553.5

CCCC[n+]1ccn(C)c1.O=S(=O)([N-]S(=O)(=O)C(F)(F)F)C(F)(F)F
Liquid
Conditions	mass density, [3] [kg/m3]	refractive index, [4]	speed of sound, [3] [m/s]
298.15 K	1433.72	1.42671	1227.9
303.15 K	1428.95	1.42523	1216.8
308.15 K	1424.18	1.42374	1205.8
313.15 K	1419.41	1.42225	1195
318.15 K	1414.64	1.42076	1184.2
323.15 K	1409.87	1.41923	1173.6
